Reference: PubChem BioAssay AID651761 (The Scripps Research Institute Molecular Screening Center, 2012)
“And” between values parts separate entries of the source, which are not always exact repeats. Equal values may be shown once. The source made the active and inactive calls. How the calls were made is not given here.

target: Perilipin-5 (Homo sapiens) + 1-acylglycerol-3-phosphate O-acyltransferase ABHD5 (Homo sapiens) (UniProt Q00G26+Q8WTS1); assay: ABHD5-PLIN5 interaction inhibitors, late-stage follow-up, biochemical, luminescence (AID 651761)
Sequence (Q00G26 whole entry, looked up): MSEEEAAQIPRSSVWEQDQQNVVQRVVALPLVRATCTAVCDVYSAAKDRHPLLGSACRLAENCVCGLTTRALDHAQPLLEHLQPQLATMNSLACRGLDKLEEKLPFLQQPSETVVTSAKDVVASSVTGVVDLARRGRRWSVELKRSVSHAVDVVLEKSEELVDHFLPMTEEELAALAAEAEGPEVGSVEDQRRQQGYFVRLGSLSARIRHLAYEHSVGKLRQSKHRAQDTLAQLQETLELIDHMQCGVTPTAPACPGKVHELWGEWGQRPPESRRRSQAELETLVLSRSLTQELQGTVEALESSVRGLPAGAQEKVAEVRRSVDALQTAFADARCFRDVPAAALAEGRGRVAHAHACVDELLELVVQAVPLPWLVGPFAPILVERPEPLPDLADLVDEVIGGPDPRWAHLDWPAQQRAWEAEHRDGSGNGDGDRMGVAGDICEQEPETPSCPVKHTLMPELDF
Sequence (Q8WTS1 whole entry, looked up): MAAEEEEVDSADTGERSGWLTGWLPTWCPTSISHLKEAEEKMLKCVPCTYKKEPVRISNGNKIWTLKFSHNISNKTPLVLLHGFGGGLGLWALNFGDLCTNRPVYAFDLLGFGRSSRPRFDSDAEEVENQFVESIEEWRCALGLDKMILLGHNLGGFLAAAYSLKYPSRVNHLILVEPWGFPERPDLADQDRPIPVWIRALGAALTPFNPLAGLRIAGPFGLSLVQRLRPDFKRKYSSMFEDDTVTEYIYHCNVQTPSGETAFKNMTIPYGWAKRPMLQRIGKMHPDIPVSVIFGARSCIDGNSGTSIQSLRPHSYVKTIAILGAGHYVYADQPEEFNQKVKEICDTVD

| SMILES | IC50 |
| --- | --- |
| O=c1[nH]c(C2CCN(S(=O)(=O)c3ccc(F)cc3)CC2)nc2c1nnn2Cc1ccc2c(c1)OCCO2 | inactive |
| COc1ccc(NC(=S)N(CCCN2CCCC2)Cc2cccn2Cc2ccc(Cl)cc2)cc1Cl | inactive |
| Cc1cc(C)c(NC(=O)CN2CCN3CCCC3C2)c(C)c1 (stereo unspecified) | inactive |
| COc1cc(C)c2sc3ccccc3c(=O)c2c1NCCN(C)C | > 39.8 µM (inactive) |
| Cc1cc(C)c(NC(=O)C[N+](C)(C)CC(O)COc2cccc3ccccc23)c(C)c1 (stereo unspecified) | 4.32 µM |
| CN(C)CCN(Cc1ccco1)c1ccccn1 | > 39.8 µM (inactive) |
| CC(=O)Cc1cc(O)c2ccccc2c1OC(=O)c1ccc(Br)cc1 | 2.68 µM |
| CCN(CC)CCN(CC(=O)Nc1c(C)cc(C)cc1C)C(=O)c1ccccc1 | 5.67 µM |
| CC1Sc2ccc(S(=O)(=O)N3CCC(C(=O)NCc4ccc(Cl)cc4)CC3)cc2NC1=O (stereo unspecified) | 8.56 µM |
| CC(C)c1ccc(N2C=Nc3ccc(C(C)C)cc3C2)cc1 | 1.56 µM |
| COCCN(CCOC)c1nc(N)c2c(N)nc3c(c2c1C#N)CC(=O)N3Cc1ccc(Cl)cc1 | > 39.8 µM (inactive) |
| CCOc1cc(N)c(Cl)cc1C(=O)NCC1CN(Cc2ccc(F)cc2)CCO1 (stereo unspecified) | 1.34 µM |
| CN1CCC(=C2c3ccccc3CC(=O)c3sccc32)CC1 | > 39.8 µM (inactive) |
| NC(=NCCCCCCN=C(N)/N=C(\N)Nc1ccc(Cl)cc1)/N=C(\N)Nc1ccc(Cl)cc1 | 2.64 µM |
| CN(C)CCCN(C(=O)CCc1ccccc1)c1nc2ccc(Cl)cc2s1 | 7.07 µM |
| O=C(C[n+]1cccc(CNC(=O)c2ccc(OC(F)F)cc2)c1)Nc1cccc(C(F)(F)F)c1 | inactive |
| COc1cc(OC)cc(C(=O)NC(=S)N(Cc2ccccc2)C(C)C)c1 | 1.44 µM |
| CC(=O)Nc1ccc(S(=O)(=O)N2c3ccc(F)cc3CCC2C)cc1 (stereo unspecified) | 6.48 µM |
| CCCCNC(=O)Nc1ccc2c(c1)N(C)C(=O)c1ccccc1S2 | 3.02 µM |
| Cc1nc2c(o1)CCc1ccccc1C2N1CCN(C)CC1 (stereo unspecified) | 2.75 µM |
| CN(C)CCOC1(Cc2ccc(F)cc2)CCC(C(C)(C)C)CC1 (stereo unspecified) | > 39.8 µM (inactive) |
| CCN(CC)CCNC(=O)c1ccc(NC(=O)c2cn(-c3ccccc3)nc2-c2cccs2)cc1 | inactive |
| CC1=CC(C)(C)Nc2ccc(OC(=O)C(C)N3C(=O)c4ccccc4C3=O)cc21 (stereo unspecified) | 3.02 µM |

| SMILES | IC50 |
| --- | --- |
| COc1ccc(C)c2sc(N(CCN(C)C)C(=O)/C=C/c3cccs3)nc12 | 6.96 µM |
| CC(=O)Oc1ccc(C23c4ccccc4C2(OC(C)=O)c2cc(OC(C)=O)ccc23)cc1 (stereo unspecified) | > 39.8 µM (inactive) |
| CCCNC(=O)Nc1ccc2c(c1)N(C)C(=O)c1ccccc1S2 | 7.42 µM |
| CCCCOC(=O)Nc1cc(C(=O)OC)ccc1C(=O)OC | 5.26 µM |
| CN(C)CCCN(C(=O)CCc1ccccc1)c1nc2ccc(Br)cc2s1 | 8.16 µM |
| CCN(CC)CCOCCOC(=O)C1(c2ccccc2)CCCC1 | 0.985 µM |
| O=c1[nH]c(C2CCN(S(=O)(=O)c3ccc(S(=O)(=O)NC4CC4)cc3)CC2)nc2c1nnn2Cc1ccc(F)cc1 | 3.42 µM |
| CCN(CC)CCC(C)OC(c1ccccc1)c1ccccc1 (stereo unspecified) | 1.79 µM |
| CC1CCN(S(=O)(=O)c2ccc(NC(=O)Cc3cccs3)cc2)CC1 | 8.64 µM |
| COc1cc2c(cc1OC)C(C)N(CCc1ccc(Cl)cc1)CC2 (stereo unspecified) | inactive |
| CCOC(=O)c1c(NC(C)=O)sc2c1CCC(C=O)=C2Sc1ccccc1 | 1.79 µM |
| Cc1ccc2c(CC(=O)N3CCN(S(=O)(=O)c4ccc5c(c4)OCCO5)CC3)coc2c1 | 5 µM and 5.03 µM |
| CC(CCc1ccco1)NC(=O)CCc1nnc2ccc(NCc3ccccc3Cl)nn12 (stereo unspecified) | 1.01 µM |
| CC1CCN(S(=O)(=O)c2ccc(NC(=O)Cc3ccccc3)cc2)CC1 | 8.77 µM |
| O=C(/C(=C/O)N=Nc1ccc(Cl)cc1)c1ccncc1 | 9.67 µM |
| CCOC(=O)c1c(NC(=O)/C=C/C(=O)O)sc(C)c1-c1ccc(C(C)(C)C)cc1 | 5.05 µM |
| Cc1ccc2nc3cc([N+](=O)[O-])cc([N+](=O)[O-])c3cc2c1 | 0.619 µM |
| COc1ccccc1-c1cc(C(=O)NC2CCN(C)CC2)c2ccc(Cl)c(C)c2n1 | inactive |
| CC(=O)Cc1cc(O)c2ccccc2c1OC(=O)c1ccccc1 | 1.52 µM |
| CCN(CC)CCOc1ccc(/C(=C(/Cl)c2ccccc2)c2ccccc2)cc1 | 1.11 µM |
| FC(F)(F)c1cccc(NC(=S)N(CCCN2CCCC2)Cc2cccn2Cc2ccc(Cl)cc2)c1 | inactive |
| C=C[C@]1(C)C[C@@H](OC(=O)CSCCN(CC)CC)[C@]2(C)C(C)CC[C@]3(CCC(=O)[C@H]32)[C@@H](C)[C@@H]1O (stereo partly specified) | 8.02 µM |
| Cc1cc(C)c2nc(NNC(=O)c3ccc(S(=O)(=O)N4CCCC(C)C4)cc3)sc2c1 (stereo unspecified) | 4.11 µM |
